# Measurements published in patent EP0281242B1, “Beta-alkylmelatonins” (ELI LILLY AND COMPANY, priority 1987, dated 1988).
# Tested on: ovulation
# Test: not given
# Details: compared to melatonin; cited from earlier work
row,Structure (SMILES),ovulation blocking activity
1,COc1cc2c(CCNC(C)=O)c[nH]c2cc1Cl [6-chloromelatonin],increased ovulation blocking activity
2,COc1cc2c(CCNC(C)=O)c[nH]c2cc1F [6-fluoromelatonin],increased ovulation blocking activity
3,COc1cc2c(CC(C)NC(C)=O)c[nH]c2cc1Cl (stereo not drawn) [α-Methyl-6-chloromelatonin],no increased ovulation-blocking activity

# Tested on: Adult female rats
# Test: Ovulation inhibition in adult female rats (ova in the oviduct on the day of estrus)
# Assay type: in vivo
# Details: Rattus norvegicus, po; administered orally at noon on the day of proestrus; dose giving a 50% decrease in the number of ovulating non-control rats relative to control rats; read-out: Minimum effective inhibitory dose in mg per kilogram of rat weight
# Protocol: The degree of ovulation inhibitory activity was determined according to the following protocol.
# Adult female rats with regular estrus cycles of four days each are employed. The estrus cycle consists of 2 days of diestrus followed by a day of proestrus and then a day of estrus. […] On the afternoon of proestrus, luteinizing hormone (LH) is released into the blood by the pituitary gland. The LH travels to the ovary where it induces ovulation, resulting in the presence of eggs in the oviduct on the day of estrus.
# The test compound is administered orally to the non-control rats at noon on the day of proestrus. Both control and non-control rats are sacrificed on the following day (estrus). The oviduct is removed from each rat and examined microscopically for the presence of ova.
# Melatonin is included in Table I for comparative purposes.
row,Structure (SMILES),minimal effective dose [mg/kg]
1,"COc1cc2c(C(C)CNC(C)=O)c[nH]c2c(Cl)c1Cl (racemic) [β-Methyl-6,7-dichloro-melatonin, β-methyl-6,7-dichloromelatonin]",15
2,"CCC(CNC(C)=O)c1c[nH]c2ccc(OC)cc12 (racemic) [β-ethyl melatonin, β-Ethylmelatonin]",1
3,"COc1ccc2[nH]cc(C(C)CNC(C)=O)c2c1 (racemic) [β-methyl melatonin, β-Methylmelatonin]",1
4,"COc1cc2c(C(C)CNC(C)=O)c[nH]c2cc1Cl (racemic) [β-methyl-6-chloro-melatonin, β-Methyl-6-chloromelatonin]",2
5,"COc1ccc2[nH]cc(CCNC(C)=O)c2c1 [Melatonin, N-[2-(5-methoxy-3-indolyl)ethyl]acetamide]",32
6,"COc1ccc2[nH]cc([C@@H](C)CNC(C)=O)c2c1 [R-(+)-β-methyl melatonin, R-(+)-β-Methylmelatonin]",1
7,COc1cc2c([C@@H](C)CNC(C)=O)c[nH]c2cc1Cl [R-(+)-β-methyl-6-chloromelatonin],1
8,COc1cc2c([C@H](C)CNC(C)=O)c[nH]c2cc1Cl [S-(-)-β-methyl-6-chloromelatonin],> 5

# Tested on: rats and mice
# Test: not given
# Details: cited from earlier work
row,Structure (SMILES),inhibition of the estrous phase of the estrous cycle and of ovulation
1,"COc1ccc2[nH]cc(CCNC(C)=O)c2c1 [Melatonin, N-[2-(5-methoxy-3-indolyl)ethyl]acetamide]",inhibited both the estrous phase of the estrous cycle and ovulation
